In patent US20150299143A1, “SUBSTITUTED TRIAZOLE AND IMIDAZOLE COMPOUNDS” (HOFFMANN-LA ROCHE INC., priority 2012, published 2015):

Key:
β 2c/2i (trypsin-like) = test: Cell-Based Proteasome subunit activity/selectivity assay, β2c/2i, substrate (KQL)2Rh110; settings: Ramos cells; substrate (KQL)2Rh110 (β2c/2i); highest concentration tested 20 μM
How it was run: (§1)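 Subunit activity in cultured cells read with subunit-selective fluorogenic Rh110 substrates: (LLE)2 for β1c, (PAL)2 for β1i, (KQL)2 for β2c/2i, (WLA)2 for β5c. Cells exposed to 4-fold serially diluted compound (top 20 μM) 30 min at 37 °C, then substrate 120 min at room temperature; fluorescence 500/519 nm.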

[1] = target: T1, β5c (chymotrypsin-like activity) (Homo sapiens, UniProt P20618+P28074); test: Cell-Based Proteasome subunit activity/selectivity assay, β5c, substrate (WLA)2Rh110; settings: Ramos cells; substrate (WLA)2Rh110 (β5c); highest concentration tested 20 μM; read-out: Ic50:ramos:rh110-(wla)2
T1 construct: protease activity associated with the proteasome complex in cultured cells; endogenous in cells; host or cells: Ramos cells
How it was run: as §1

β 1i (caspase-like) = target: T2, β 1i (caspase-like) (Homo sapiens, UniProt P28065+P40306); test: Cell-Based Proteasome subunit activity/selectivity assay, β1i, substrate (PAL)2Rh110; settings: Ramos cells; substrate (PAL)2Rh110 (β1i); highest concentration tested 20 μM; read-out: Ic50:ramos:rh110-(pal)2
T2 construct: protease activity associated with the proteasome complex in cultured cells; endogenous in cells; host or cells: Ramos cells
How it was run: as §1

β 1c (caspase-like) = target: T3, β 1c (caspase-like) (Homo sapiens, UniProt P28072+Q99436); test: Cell-Based Proteasome subunit activity/selectivity assay, β1c, substrate (LLE)2Rh110; settings: Ramos cells; substrate (LLE)2Rh110 (β1c); highest concentration tested 20 μM; read-out: Ic50:ramos:rh110-(lle)2
T3 construct: protease activity associated with the proteasome complex in cultured cells; endogenous in cells; host or cells: Ramos cells
How it was run: as §1

[2] = target: T4, β 5i (chymotrypsin-like activity) (Homo sapiens, UniProt P20618+P28062); test: Cell-Based Proteasome subunit activity/selectivity assay, β5i, substrate (ANW)2Rh110; settings: Ramos cells; substrate (ANW)2Rh110 (β5i); highest concentration tested 20 μM; read-out: Ic50:ramos:ac-(anw)2-r110
T4 construct: protease activity associated with the proteasome complex in cultured cells; endogenous in cells; host or cells: Ramos cells
How it was run: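 Cell-based fluorogenic assay measuring chymotrypsin-like β5i proteasome activity using the substrate (ANW)2Rh110. Cultured cells received 0.5 μl of 100× 4-fold serial diluted compounds or DMSO per well, were incubated 30 minutes at 37° C, then equilibrated 15 minutes at room temperature. After shaking one minute @ 700 rpm and 120 min room-temperature incubation, fluorescence was read at 500 nm excitation/519 nm emission on an Envision reader.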

Structure (SMILES): COc1ccc(C(=O)NCCn2cc(C(=O)NC(C#N)c3ccc(C(F)(F)F)cc3)nn2)c(F)c1 (stereo not drawn) [Example 74, 1-[2-(2-Fluoro-4-methoxy-benzoylamino)-ethyl]-1H-[1,2,3]triazole-4-carboxylic acid [cyano-(4-trifluoromethyl-phenyl)-methyl]-amide]
- IC50 (β 2c/2i (trypsin-like)): ≥ 20 µM
- IC50 [1]: ≥ 20 µM
- IC50 (β 1i (caspase-like)): ≥ 20 µM
- IC50 (β 1c (caspase-like)): ≥ 20 µM
- IC50 [2]: 1.74 µM

Structure (SMILES): CCc1ccc(C(C#N)NC(=O)c2cn(CCNC(=O)CC3Cc4ccccc4C3)nn2)cc1 (stereo not drawn) [Example 9, 1-[2-(2-Indan-2-yl-acetylamino)-ethyl]-1H-[1,2,3]triazole-4-carboxylic acid [cyano-(4-ethyl-phenyl)-methyl]-amide]
- IC50 (β 2c/2i (trypsin-like)): ≥ 20 µM
- IC50 [1]: ≥ 20 µM
- IC50 (β 1i (caspase-like)): ≥ 20 µM
- IC50 (β 1c (caspase-like)): ≥ 20 µM
- IC50 [2]: 4.29 µM

Structure (SMILES): CCc1ccc(C(C#N)NC(=O)c2cn(CCNC(=O)c3ccc(OC)c(OC)c3OC)nn2)cc1 (single isomer, unassigned) [Example 50]
- IC50 (β 2c/2i (trypsin-like)): ≥ 20 µM
- IC50 [1]: ≥ 20 µM
- IC50 (β 1i (caspase-like)): ≥ 20 µM
- IC50 (β 1c (caspase-like)): ≥ 20 µM
- IC50 [2]: 0.058 µM

Structure (SMILES): CCc1ccc(C(C#N)NC(=O)c2nc(CCNC(=O)c3ccc(OC)c(OC)c3OC)n[nH]2)cc1 (stereo not drawn) [Example 89, 5-[2-(2,3,4-Trimethoxy-benzoylamino)-ethyl]-2H-[1,2,4]triazole-3-carboxylic acid [cyano-(4-ethyl-phenyl)-methyl]-amide]
- IC50 (β 2c/2i (trypsin-like)): ≥ 20 µM
- IC50 [1]: ≥ 20 µM
- IC50 (β 1i (caspase-like)): ≥ 20 µM
- IC50 (β 1c (caspase-like)): ≥ 20 µM
- IC50 [2]: 0.054 µM

Structure (SMILES): COc1cccc(C(C#N)NC(=O)c2cn(CCNC(=O)c3ccc(OC)c(OC)c3OC)nn2)c1 (stereo not drawn) [Example 52, 1-[2-(2,3,4-Trimethoxy-benzoylamino)-ethyl]-1H-[1,2,3]triazole-4-carboxylic acid [cyano-(3-methoxy-phenyl)-methyl]-amide]
- IC50 (β 2c/2i (trypsin-like)): ≥ 20 µM
- IC50 [1]: ≥ 20 µM
- IC50 (β 1i (caspase-like)): ≥ 20 µM
- IC50 (β 1c (caspase-like)): ≥ 20 µM
- IC50 [2]: 2.69 µM

Structure (SMILES): COc1ccc(C(=O)NCCn2cc(C(=O)NC(C#N)c3ccc(OC(C)C)cc3)nn2)c(OC)c1OC (stereo not drawn) [Example 67, 1-[2-(2,3,4-Trimethoxy-benzoylamino)-ethyl]-1H-[1,2,3]triazole-4-carboxylic acid [cyano-(4-isopropoxy-phenyl)-methyl]-amide]
- IC50 (β 2c/2i (trypsin-like)): ≥ 20 µM
- IC50 [1]: ≥ 20 µM
- IC50 (β 1i (caspase-like)): ≥ 20 µM
- IC50 (β 1c (caspase-like)): ≥ 20 µM
- IC50 [2]: 5.49 µM

Structure (SMILES): CCc1ccc(C(C#N)NC(=O)c2cn(CCNC(=O)c3cc(Cl)ccc3Cl)nn2)cc1 (stereo not drawn) [Example 14, 1-[2-(2,5-Dichloro-benzoylamino)-ethyl]-1H-[1,2,3]triazole-4-carboxylic acid [cyano-(4-ethyl-phenyl)-methyl]-amide]
- IC50 (β 2c/2i (trypsin-like)): ≥ 20 µM
- IC50 [1]: ≥ 20 µM
- IC50 (β 1i (caspase-like)): ≥ 20 µM
- IC50 (β 1c (caspase-like)): ≥ 20 µM
- IC50 [2]: 0.19 µM

Structure (SMILES): Cc1ccc(C(=O)NCCn2cc(C(=O)NC(C#N)c3ccc(C(F)(F)F)cc3)nn2)c(F)c1 (stereo not drawn) [Example 75, 1-[2-(2-Fluoro-4-methyl-benzoylamino)-ethyl]-1H-[1,2,3]triazole-4-carboxylic acid [cyano-(4-trifluoromethyl-phenyl)-methyl]-amide]
- IC50 (β 2c/2i (trypsin-like)): ≥ 20 µM
- IC50 [1]: 19.9 µM
- IC50 (β 1i (caspase-like)): ≥ 20 µM
- IC50 (β 1c (caspase-like)): ≥ 20 µM
- IC50 [2]: 1.39 µM

Structure (SMILES): CCOC(=O)[C@H](CCc1ccccc1)NC(=O)c1cn(CCNC(=O)c2ccc(OC)c(OC)c2OC)nn1 [Example 80, (S)-4-Phenyl-2-({1-[2-(2,3,4-trimethoxy-benzoylamino)-ethyl]-1H-[1,2,3]triazole-4-carbonyl}-amino)-butyric acid ethyl ester]
- IC50 (β 2c/2i (trypsin-like)): ≥ 20 µM
- IC50 [1]: ≥ 20 µM
- IC50 (β 1i (caspase-like)): ≥ 20 µM
- IC50 (β 1c (caspase-like)): ≥ 20 µM
- IC50 [2]: 0.447 µM

Structure (SMILES): COc1ccc(C(C#N)NC(=O)c2cn(CCNC(=O)c3ccc(OC)c(OC)c3OC)nn2)cc1 (stereo not drawn) [Example 8, 1-[2-(2,3,4-Trimethoxy-benzoylamino)-ethyl]-1H-[1,2,3]triazole-4-carboxylic acid [cyano-(4-methoxy-phenyl)-methyl]-amide]
- IC50 (β 2c/2i (trypsin-like)): ≥ 20 µM
- IC50 [1]: ≥ 20 µM
- IC50 (β 1i (caspase-like)): ≥ 20 µM
- IC50 (β 1c (caspase-like)): ≥ 20 µM
- IC50 [2]: 0.423 µM

Structure (SMILES): CCc1ccc(C(C#N)NC(=O)c2cn(CC/N=C(\SC)c3ccc(OC)c(OC)c3OC)nn2)cc1 (stereo not drawn) [Example 87, N-[2-(4-{[Cyano-(4-ethyl-phenyl)-methyl]-carbamoyl}-[1,2,3]triazol-1-yl)-ethyl]-2,3,4-trimethoxy-thiobenzimidic acid methyl ester]
- IC50 (β 2c/2i (trypsin-like)): ≥ 20 µM
- IC50 [1]: 8.55 µM
- IC50 (β 1i (caspase-like)): ≥ 20 µM
- IC50 (β 1c (caspase-like)): ≥ 20 µM
- IC50 [2]: 2.47 µM

Structure (SMILES): COc1ccc(C(=O)NCCn2cc(C(=O)NC(C#N)c3cccc(SC)c3)nn2)c(OC)c1OC (stereo not drawn) [Example 55, 1-[2-(2,3,4-Trimethoxy-benzoylamino)-ethyl]-1H-[1,2,3]triazole-4-carboxylic acid [cyano-(3-methylsulfanyl-phenyl)-methyl]-amide]
- IC50 (β 2c/2i (trypsin-like)): ≥ 20 µM
- IC50 [1]: ≥ 20 µM
- IC50 (β 1i (caspase-like)): ≥ 20 µM
- IC50 (β 1c (caspase-like)): ≥ 20 µM
- IC50 [2]: 4.02 µM

Structure (SMILES): CCc1ccc(C(C#N)NC(=O)c2nc(CCNC(=O)c3ccc(C(F)(F)F)cc3F)n[nH]2)cc1 (stereo not drawn) [Example 91, 5-[2-(2-Fluoro-4-trifluoromethyl-benzoylamino)-ethyl]-2H-[1,2,4]triazole-3-carboxylic acid [cyano-(4-ethyl-phenyl)-methyl]-amide]
- IC50 (β 2c/2i (trypsin-like)): ≥ 20 µM
- IC50 [1]: ≥ 20 µM
- IC50 (β 1i (caspase-like)): ≥ 20 µM
- IC50 (β 1c (caspase-like)): ≥ 20 µM
- IC50 [2]: 0.054 µM

Structure (SMILES): COc1ccc(C(=O)NCCn2cc(C(=O)NC(C#N)c3ccc4c(c3)OCO4)nn2)c(OC)c1OC (stereo not drawn) [Example 53, 1-[2-(2,3,4-Trimethoxy-benzoylamino)-ethyl]-1H-[1,2,3]triazole-4-carboxylic acid (benzo[1,3]dioxol-5-yl-cyano-methyl)-amide]
- IC50 (β 2c/2i (trypsin-like)): ≥ 20 µM
- IC50 [1]: ≥ 20 µM
- IC50 (β 1i (caspase-like)): ≥ 20 µM
- IC50 (β 1c (caspase-like)): ≥ 20 µM
- IC50 [2]: 0.585 µM

Structure (SMILES): CCc1ccc(C(C#N)NC(=O)c2cn(CCNC(=O)c3ccc(C(F)(F)F)cc3F)cn2)cc1 (stereo not drawn) [Example 94, 1-[2-(2-Fluoro-4-trifluoromethyl-benzoylamino)-ethyl]-1H-imidazole-4-carboxylic acid [cyano-(4-ethyl-phenyl)-methyl]-amide]
- IC50 (β 2c/2i (trypsin-like)): ≥ 20 µM
- IC50 [1]: ≥ 20 µM
- IC50 (β 1i (caspase-like)): ≥ 20 µM
- IC50 (β 1c (caspase-like)): ≥ 20 µM
- IC50 [2]: 1.01 µM

Structure (SMILES): CCc1ccc(C(C#N)NC(=O)c2cn(CCNC(=O)c3ccc(C)nc3OC)nn2)cc1 (stereo not drawn) [Example 34, N-[2-(4-{[Cyano-(4-ethyl-phenyl)-methyl]-carbamoyl}-[1,2,3]triazol-1-yl)-ethyl]-2-methoxy-6-methyl-nicotinamide]
- IC50 (β 2c/2i (trypsin-like)): ≥ 20 µM
- IC50 [1]: ≥ 20 µM
- IC50 (β 1i (caspase-like)): ≥ 20 µM
- IC50 (β 1c (caspase-like)): ≥ 20 µM
- IC50 [2]: 0.259 µM

Structure (SMILES): COc1ccc(C(=O)NCCn2cc(C(=O)NCc3ccc(C)cc3)nn2)c(OC)c1OC [Example 3, 1-[2-(2,3,4-Trimethoxy-benzoylamino)-ethyl]-1H-[1,2,3]triazole-4-carboxylic acid 4-methyl-benzylamide]
- IC50 (β 2c/2i (trypsin-like)): ≥ 20 µM
- IC50 [1]: ≥ 20 µM
- IC50 (β 1i (caspase-like)): ≥ 20 µM
- IC50 (β 1c (caspase-like)): ≥ 20 µM
- IC50 [2]: 2.9 µM

Structure (SMILES): CCOC(=O)[C@H](CCc1ccccc1)NC(=O)c1cn(CCNC(=O)c2ccc(C(F)(F)F)cc2F)nn1 [Example 81, (S)-2-({1-[2-(2-Fluoro-4-trifluoromethyl-benzoylamino)-ethyl]-1H-[1,2,3]triazole-4-carbonyl}-amino)-4-phenyl-butyric acid ethyl ester]
- IC50 (β 2c/2i (trypsin-like)): ≥ 20 µM
- IC50 [1]: ≥ 20 µM
- IC50 (β 1i (caspase-like)): ≥ 20 µM
- IC50 (β 1c (caspase-like)): ≥ 20 µM
- IC50 [2]: 0.205 µM

Structure (SMILES): CCc1ccc(C(C#N)NC(=O)c2cn(CCNC(=O)c3cccc4c3OCC4)nn2)cc1 (stereo not drawn) [Example 13, 1-{2-[(2,3-Dihydro-benzofuran-7-carbonyl)-amino]-ethyl}-1H-[1,2,3]triazole-4-carboxylic acid [cyano-(4-ethyl-phenyl)-methyl]-amide]
- IC50 (β 2c/2i (trypsin-like)): ≥ 20 µM
- IC50 [1]: ≥ 20 µM
- IC50 (β 1i (caspase-like)): ≥ 20 µM
- IC50 (β 1c (caspase-like)): ≥ 20 µM
- IC50 [2]: 1.89 µM

Structure (SMILES): CCc1ccc(C(C#N)NC(=O)c2cn(CCNC(=O)C3Cc4ccccc4C3)nn2)cc1 (stereo not drawn) [Example 12, 1-{2-[(Indane-2-carbonyl)-amino]-ethyl}-1H-[1,2,3]triazole-4-carboxylic acid [cyano-(4-ethyl-phenyl)-methyl]-amide]
- IC50 (β 2c/2i (trypsin-like)): ≥ 20 µM
- IC50 [1]: ≥ 20 µM
- IC50 (β 1i (caspase-like)): ≥ 20 µM
- IC50 (β 1c (caspase-like)): ≥ 20 µM
- IC50 [2]: 1.26 µM

Structure (SMILES): CCc1ccc(C(C#N)NC(=O)c2cn(CCNC(=O)c3ccc(C(F)(F)F)cc3F)nn2)cc1 (stereo not drawn) [Example 38, 1-[2-(2-Fluoro-4-trifluoromethyl-benzoylamino)-ethyl]-1H-[1,2,3]triazole-4-carboxylic acid [cyano-(4-ethyl-phenyl)-methyl]-amide]
- IC50 (β 2c/2i (trypsin-like)): ≥ 20 µM
- IC50 [1]: ≥ 20 µM
- IC50 (β 1i (caspase-like)): ≥ 20 µM
- IC50 (β 1c (caspase-like)): ≥ 20 µM
- IC50 [2]: 0.017 µM
